In patent publication US20080141384A1, “Composition For Screening Anti-Hypertension Drug Comprising Mammal Tctp Gene or Its Protein Product, and Method For Screening Anti-Hypertension Drug Using Said Composition” (EWHA UNIVERSITY INDUSTRY COLLABORATION FOUNDATION, priority 2003, published 2008):

Legend:
Na/K APTase pump [1] = experiment: Na/K APTase pump activity by 86Rb+ uptake in RBL-2H3 cells; assay type: cell-based; conditions: 10-20 μg/ml TCTP added, 86Rb+ tracer, versus control without TCTP, FIG. 1a
Protocol: The Na/K APTase pump inhibitory activity of the TCTP protein contained in the inventive composition was examined. As it was already known that TCTP interacts with the Na/K APTase pump, a test was performed to examine if the interaction has any effect on the activity of the Na/K APTase pump inhibitory activity.
RBL-2H3 cells were cultured at a suitable density and washed three times with Krebs-Ringer buffer (KRP, 140 mM NaCl, 5 mM KCl, 10 mM Na2HPO4, 1 mM MgSO4, 1.4 mM CaCl2, 2.5 mM glucose, pH 7.4). Subsequently, the cells were incubated at 37° C. for 15 minutes, and added with 0.1% BSA-containing KRP buffer containing 1 mM ouabain.
To measure the transport of K^+ ions caused by the Na/K APTase pump, cultivation was performed for 5-10 minutes using an ^86Rb^+([…], NEN) tracer having high sensitivity to ouabain, and 10-20 μg/ml TCTP was added. Also, a control group to which TCTP had not been added was prepared.

Na/K APTase pump [2] = experiment: FACS analysis of intracellular Na+ using a Na-sensitive dye; assay type: cell-based; conditions: FACS with Na-sensitive dye, versus control group (Mock); FIG. 1b
Protocol: To confirm the above results again, FACS analysis was performed using a Na-sensitive dye.

Na/K-ATPase pump = experiment: cell-based or functional assay

Row | Substance | activity of the Na/K APTase pump (reduced to) (Na/K APTase pump [1]) [%] | intracellular Na+ concentration (Na/K APTase pump [2]) | activity of the Na/K APTase pump (ouabain-sensitive 86Rb+ uptake in RBL-2H3 cells, 10-20 ug/ml TCTP against a control without TCTP) (Na/K-ATPase pump) [%]
1 | TCTP: Translationally controlled tumor protein (IgE-dependent histamine-releasing factor), amino acid sequence of SEQ ID NO: 2; cytoplasmic inhibitor of the Na/K-ATPase pump | 53.5 | increased the intracellular Na^+ concentration | –
2 | Translationally controlled tumor protein (TCTP) (from UniProt P13693 1-172) | – | – | 53.5
